Our source for the Kd values is patent US20250296959A1, “B7-H3 TARGETING PEPTIDES AND CONSTRUCTS THEREOF” (Mariana Oncology Inc., priority 2024, published 2025).

The target in the assay is T1, human 4lg B7-H3 (Homo sapiens, UniProt Q5ZPR3).
T1 sequence (Q5ZPR3 29-534): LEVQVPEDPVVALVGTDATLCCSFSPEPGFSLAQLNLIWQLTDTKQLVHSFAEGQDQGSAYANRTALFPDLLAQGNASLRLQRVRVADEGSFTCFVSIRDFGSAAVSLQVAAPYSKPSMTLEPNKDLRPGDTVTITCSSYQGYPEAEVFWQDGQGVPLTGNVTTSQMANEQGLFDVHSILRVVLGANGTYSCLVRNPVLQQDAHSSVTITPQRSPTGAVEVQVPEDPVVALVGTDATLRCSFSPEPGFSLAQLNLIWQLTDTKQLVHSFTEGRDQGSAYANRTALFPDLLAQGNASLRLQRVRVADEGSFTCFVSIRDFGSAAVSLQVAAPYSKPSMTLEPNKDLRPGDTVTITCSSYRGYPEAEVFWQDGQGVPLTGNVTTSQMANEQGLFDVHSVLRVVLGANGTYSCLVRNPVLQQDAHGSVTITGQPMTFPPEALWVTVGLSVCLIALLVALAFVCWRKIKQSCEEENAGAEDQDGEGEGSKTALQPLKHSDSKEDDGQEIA
In words: Affinity determination by surface plasmon resonance (SPR) to 4Ig B7-H3.

Setting [1] is: SPR KD—25° C., 4Ig B7-H3, 25° C. flow cell temperature.
Setting [2] is: SPR KD—37° C., 4Ig B7-H3, 37° C. flow cell temperature.

Where two headings read alike, the source gives them in different places. Starred links: 1 amine or outer side, 2 acyl side, 3 side chain; linkers in the order of their positions; H or OH if unused. Positions of bridges follow the written chain, without caps; N, C: chain ends. Non-standard residues stand in square brackets, D forms with d. Residues, ends and D or L forms follow the SMILES beside them. *: point of attachment. X6 = CSCC[C@H](NC(=O)c1ccc(CNC(=O)CN2CCN(CC(=O)O)CCN(CC(=O)O)CCN(CC(=O)O)CC2)cc1)C(=O)N[C@H](C(=O)N[C@@H](CCCCN*)C(=O)O)C(C)C; Ala(1-CH2CO2H-4-piperidyl) = N[C@@H](CC1CCN(CC(=O)O)CC1)C(=O)O; Ala(piperidin-4-yl) = O=C([C@H](CC1CCN([*:3])CC1)N[*:1])[*:2]; DOTA = O=C(O)CN1CCN(CC(=O)O)CCN(CC(=O)*)CCN(CC(=O)O)CC1; Tyr(SO2F) = N[C@@H](Cc1ccc(OS(=O)(=O)F)cc1)C(=O)O; Trp(5-F) = N[C@@H](Cc1c[nH]c2ccc(F)cc12)C(=O)O; Tyr(3-F) = N[C@@H](Cc1ccc(O)c(F)c1)C(=O)O; Ala(4-THP) = N[C@@H](CC1CCOCC1)C(=O)O; AEF = NCCOc1ccc(C[C@H](N)C(=O)O)cc1; N(CH2CH2COOH)Gly = O=C(O)CCNCC(=O)O; Val(3-OH) = CC(C)(O)[C@H](N)C(=O)O; Tle = CC(C)(C)[C@H](N)C(=O)O; hLeu = CC(C)CC[C@H](N)C(=O)O; Nle = CCCC[C@H](N)C(=O)O; Orn = NCCC[C@H](N)C(=O)O

Regarding `CC(=O)N[C@@H](CCC(C)C)C(=O)N[C@@H](Cc1ccc(O)cc1)C(=O)N[C@H]1CSSC[C@@H](C(=O)N[C@@H](Cc2c[nH]c3ccc(F)cc23)C(=O)N[C@@H](Cc2ccccc2)C(=O)N2CCC[C@H]2C(N)=O)NC(=O)[C@H](Cc2ccc(O)cc2)NC(=O)[C@H](C(C)C)NC(=O)[C@H](CC(=O)O)NC(=O)[C@H](Cc2ccc(OCCNC(=O)CN3CCN(CC(=O)O)CCN(CC(=O)O)CCN(CC(=O)O)CC3)cc2)NC(=O)[C@H](CC2CCNCC2)NC(=O)CNC(=O)[C@H](C(C)C)NC1=O` [compound 301, Ac-hLeu-Y-C-V-G-PipAla-AEF(DOTA)-D-V-Y-C-5FW-F-Pro-CONH2] (Ac-[hLeu]YCVG[Ala(piperidin-4-yl)][AEF](DOTA)DVYC[Trp(5-F)]FP-NH2; disulfide 3-11), the Kd – broadly, the equilibrium constant for the complex coming apart – under setting [1] is < 1 nM.
The same measure, in the same setting: the value for `CC(=O)N[C@@H](CCC(C)C)C(=O)N[C@@H](Cc1ccc(O)cc1)C(=O)N[C@H]1CSSC[C@@H](C(=O)N[C@@H](Cc2c[nH]c3ccccc23)C(=O)N[C@@H](Cc2ccccc2)C(=O)N[C@H](C(=O)N[C@H](CCCCNC(=O)CN2CCN(CC(=O)O)CCN(CC(=O)O)CCN(CC(=O)O)CC2)C(N)=O)[C@@H](C)O)NC(=O)[C@H](Cc2ccc(O)cc2)NC(=O)[C@H](C(C)(C)O)NC(=O)[C@H](CC(=O)O)NC(=O)[C@H](Cc2ccc(O)cc2)NC(=O)[C@H](CCCCN)NC(=O)CNC(=O)[C@H](C(C)C)NC1=O` [compound 127, Ac-hLeu-Y-C-V-G-K-Y-D-hydroVal-Y-C-W-F-Thr-dLys(DOTA)-CONH2] (Ac-[hLeu]YCVGKYD[Val(3-OH)]YCWFT[dK](DOTA)-NH2; disulfide 3-11) was 100 to 300 nM.
Still for that read-out and setting: the value for `CCCC[C@H](NC(C)=O)C(=O)N[C@@H](Cc1ccc(O)cc1)C(=O)N[C@H]1CSSC[C@@H](C(=O)N[C@@H](Cc2c[nH]c3ccccc23)C(=O)N[C@@H](Cc2ccccc2)C(=O)N[C@H](C(=O)N[C@H](CCCCNC(=O)CN2CCN(CC(=O)O)CCN(CC(=O)O)CCN(CC(=O)O)CC2)C(N)=O)[C@@H](C)O)NC(=O)[C@H](Cc2ccc(O)cc2)NC(=O)[C@H](C(C)C)NC(=O)[C@H](CC(N)=O)NC(=O)[C@H](Cc2ccc(O)cc2)NC(=O)[C@H](CCCCN)NC(=O)CNC(=O)[C@H](C(C)C)NC1=O` [compound 80, Ac-Nle-Y-C-V-G-K-Y-N-V-Y-C-W-F-Thr-dLys(DOTA)-CONH2] (Ac-[Nle]YCVGKYNVYCWFT[dK](DOTA)-NH2; disulfide 3-11) was 10 to 100 nM; that for `CCCC[C@H](NC(C)=O)C(=O)N[C@@H](Cc1ccc(O)cc1)C(=O)N[C@H]1CSSC[C@@H](C(=O)N[C@@H](Cc2c[nH]c3ccccc23)C(=O)N[C@@H](Cc2ccccc2)C(=O)N[C@H](C(=O)N[C@H](CCCCNC(=O)CN2CCN(CC(=O)O)CCN(CC(=O)O)CCN(CC(=O)O)CC2)C(N)=O)[C@@H](C)O)NC(=O)[C@H](Cc2ccc(O)cc2)NC(=O)[C@H](C(C)C)NC(=O)[C@H](CC(=O)O)NC(=O)[C@H](Cc2ccc(O)cc2)NC(=O)[C@H](CCCN)NC(=O)CNC(=O)[C@H](C(C)C)NC1=O` [compound 63, Ac-Nle-Y-C-V-G-Orn-Y-D-V-Y-C-W-F-Thr-dLys(DOTA)-CONH2] (Ac-[Nle]YCVG[Orn]YDVYCWFT[dK](DOTA)-NH2; disulfide 3-11) was 1 to 10 nM.
The compound `CCCC[C@H](NC(C)=O)C(=O)N[C@@H](Cc1ccc(O)cc1)C(=O)N[C@H]1CSSC[C@@H](C(=O)N[C@@H](Cc2c[nH]c3ccccc23)C(=O)N[C@@H](Cc2ccccc2)C(N)=O)NC(=O)[C@H](Cc2ccc(O)cc2)NC(=O)[C@H](C(C)C)NC(=O)[C@H](CC(=O)O)NC(=O)[C@H](Cc2ccc(O)cc2)NC(=O)[C@H](CCCCN)NC(=O)CN(CCC(=O)O)C(=O)[C@H](C(C)C)NC1=O` [compound 53, Ac-Nle-Y-C-V-N(CH2)2COOHGly-K-Y-D-V-Y-C-W-F-CONH2] (Ac-[Nle]YCV[N(CH2CH2COOH)Gly]KYDVYCWF-NH2; disulfide 3-11) displayed a Kd under setting [2] of 100 to 300 nM.
Same read-out and setting: the value for `CSCC[C@H](NC(=O)c1ccc(CNC(=O)CN2CCN(CC(=O)O)CCN(CC(=O)O)CCN(CC(=O)O)CC2)cc1)C(=O)N[C@H](C(=O)N[C@@H](CCCCNC(=O)[C@@H](NC(=O)[C@H](Cc1ccccc1)NC(=O)[C@H](Cc1c[nH]c2ccc(F)cc12)NC(=O)[C@@H]1CSSC[C@H](NC(=O)[C@H](Cc2ccc(O)cc2)NC(=O)[C@H](CCC(C)C)NC(C)=O)C(=O)N[C@@H](C(C)(C)C)C(=O)NCC(=O)N[C@@H](CC2CCNCC2)C(=O)N[C@@H](CC2CCOCC2)C(=O)N[C@@H](CC(=O)O)C(=O)N[C@@H](C(C)C)C(=O)N[C@@H](Cc2ccc(O)cc2)C(=O)N1)C(C)(C)O)C(=O)O)C(C)C` [Cpd #482, Ac-hLeu-Y-C-Tbg-G-PipAla-ThpA-D-V-Y-C-5FW-F-hydroxyVal-εLys(Val-Met-AmBz-DOTA)-COOH] (Ac-[hLeu]YC[Tle]G[Ala(piperidin-4-yl)][Ala(4-THP)]DVYC[Trp(5-F)]F[Val(3-OH)]-X6; disulfide 3-11) was 1 to 10 nM; that for `CC(=O)N[C@@H](CCC(C)C)C(=O)N[C@@H](Cc1ccc(O)cc1)C(=O)N[C@H]1CSSC[C@@H](C(=O)N[C@@H](Cc2c[nH]c3ccc(F)cc23)C(=O)N[C@@H](Cc2ccccc2)C(=O)N[C@H](C(=O)O)[C@@H](C)O)NC(=O)[C@H](Cc2ccc(O)cc2)NC(=O)[C@H](C(C)C)NC(=O)[C@H](CC(=O)O)NC(=O)[C@H](CC2CCN(CC(=O)O)CC2)NC(=O)[C@H](CCCCNC(=O)CN2CCN(CC(=O)O)CCN(CC(=O)O)CCN(CC(=O)O)CC2)NC(=O)CNC(=O)[C@H](C(C)(C)C)NC1=O` [compound 326, Ac-hLeu-Y-C-Tbg-G-Lys(DOTA)-Pip(CH2COOH)Ala-D-V-Y-C-5FW-F-Thr-COOH] (Ac-[hLeu]YC[Tle]GK(DOTA)[Ala(1-CH2CO2H-4-piperidyl)]DVYC[Trp(5-F)]FT-OH; disulfide 3-11) was 10 to 100 nM.
In turn, `CC(=O)N[C@@H](CCC(C)C)C(=O)N[C@@H](Cc1ccc(OS(=O)(=O)F)cc1)C(=O)N[C@H]1CSSC[C@@H](C(=O)N[C@@H](Cc2c[nH]c3ccc(F)cc23)C(=O)N[C@@H](Cc2ccccc2)C(=O)N[C@H](C(=O)N[C@H](CCCCNC(=O)CN2CCN(CC(=O)O)CCN(CC(=O)O)CCN(CC(=O)O)CC2)C(=O)O)C(C)(C)O)NC(=O)[C@H](Cc2ccc(O)cc2)NC(=O)[C@H](C(C)C)NC(=O)[C@H](CC(=O)O)NC(=O)[C@H](CC2CCOCC2)NC(=O)[C@H](CC2CCNCC2)NC(=O)CNC(=O)[C@H](C(C)(C)C)NC1=O` [compound 478, Ac-hLeu-FSY-C-Tbg-G-PipAla-ThpA-D-V-Y-C-5FW-F-hydroxyVal-dLys(DOTA)-COOH] (Ac-[hLeu][Tyr(SO2F)]C[Tle]G[Ala(piperidin-4-yl)][Ala(4-THP)]DVYC[Trp(5-F)]F[Val(3-OH)][dK](DOTA)-OH; disulfide 3-11) returned a Kd of 10 to 100 nM.
Consider `CC(=O)N[C@@H](CCC(C)C)C(=O)N[C@@H](Cc1ccc(O)cc1)C(=O)N[C@H]1CSSC[C@@H](C(=O)N[C@@H](Cc2c[nH]c3ccccc23)C(=O)N[C@@H](Cc2ccccc2)C(=O)N[C@H](C(=O)N[C@H](CCCCNC(=O)CN2CCN(CC(=O)O)CCN(CC(=O)O)CCN(CC(=O)O)CC2)C(N)=O)[C@@H](C)O)NC(=O)[C@H](Cc2ccc(O)c(F)c2)NC(=O)[C@H](C(C)C)NC(=O)[C@H](CC(=O)O)NC(=O)[C@H](Cc2ccc(O)cc2)NC(=O)[C@H](CCCCN)NC(=O)CNC(=O)[C@H](C(C)C)NC1=O` [compound 151, Ac-hLeu-Y-C-V-G-K-Y-D-V-3FY-C-W-F-Thr-dLys(DOTA)-CONH2] (Ac-[hLeu]YCVGKYDV[Tyr(3-F)]CWFT[dK](DOTA)-NH2; disulfide 3-11), for which the Kd under setting [1] lay in the range of 1 to 10 nM.
